Data taken from patent US20050234066A1, “Alpha substituted carboxylic acids” (Agouron Pharmaceuticals, Inc., priority 2004, published 2005).
“And” between values parts separate entries of the source, which are not always exact repeats. Equal values may be shown once. Read-outs that look alike come from different tables or passages of the source.

Assays:
PPAR-α = target: T1, PPAR-α (Homo sapiens, UniProt Q07869); experiment: Scintillation Proximity Assay (SPA), displacement of 3H labeled GW2331; type: binding; settings: 3H GW2331 displacement, read-out: PPAR-alpha Ki
T1 sequence (Q07869 1-468): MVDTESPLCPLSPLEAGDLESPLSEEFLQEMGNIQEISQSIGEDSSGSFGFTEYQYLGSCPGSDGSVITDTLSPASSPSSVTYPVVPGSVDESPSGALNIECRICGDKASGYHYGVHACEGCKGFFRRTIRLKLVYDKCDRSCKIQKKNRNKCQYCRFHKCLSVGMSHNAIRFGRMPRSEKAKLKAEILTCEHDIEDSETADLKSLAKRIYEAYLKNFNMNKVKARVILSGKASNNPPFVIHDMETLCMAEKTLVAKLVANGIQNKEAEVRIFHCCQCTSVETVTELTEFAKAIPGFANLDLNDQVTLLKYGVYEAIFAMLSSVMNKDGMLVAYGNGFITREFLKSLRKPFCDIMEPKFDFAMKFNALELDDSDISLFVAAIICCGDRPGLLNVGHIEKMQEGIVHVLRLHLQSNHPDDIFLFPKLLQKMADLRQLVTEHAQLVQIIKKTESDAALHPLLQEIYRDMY
From the text: (§1) Scintillatian Proximity Assay (SPA) Assays
(§2) In the SPA assay, 3H labeled darglitazone (for PPAR-γ) or GW2331 (for PPAR-α) is bound to the PPAR protein captured on SPA polylysine beads and generates radioactive count signal that can be detected by TopCounts (Packard). The PPAR-bound 3H labeled ligand can be displaced by an unlabeled compound. The Ki of the compound can be then determined by the extent of displacement at various compound concentrations. Reagents: • SPA polylysine beads, which can be purchased from Amersham Bioscience. • H labeled Darglitazone for PPAR-γ. • H labeled GW2331 for PPAR-α. • PPAR proteins. • Buffer—PBS, 10% glycerol, 14 mM beta-mercaptoethanol.

PPAR-γ = target: T2, PPAR-γ (Homo sapiens, UniProt P37231); experiment: Scintillation Proximity Assay (SPA), displacement of 3H labeled darglitazone; type: binding; settings: 3H darglitazone displacement
T2 sequence (P37231 1-505): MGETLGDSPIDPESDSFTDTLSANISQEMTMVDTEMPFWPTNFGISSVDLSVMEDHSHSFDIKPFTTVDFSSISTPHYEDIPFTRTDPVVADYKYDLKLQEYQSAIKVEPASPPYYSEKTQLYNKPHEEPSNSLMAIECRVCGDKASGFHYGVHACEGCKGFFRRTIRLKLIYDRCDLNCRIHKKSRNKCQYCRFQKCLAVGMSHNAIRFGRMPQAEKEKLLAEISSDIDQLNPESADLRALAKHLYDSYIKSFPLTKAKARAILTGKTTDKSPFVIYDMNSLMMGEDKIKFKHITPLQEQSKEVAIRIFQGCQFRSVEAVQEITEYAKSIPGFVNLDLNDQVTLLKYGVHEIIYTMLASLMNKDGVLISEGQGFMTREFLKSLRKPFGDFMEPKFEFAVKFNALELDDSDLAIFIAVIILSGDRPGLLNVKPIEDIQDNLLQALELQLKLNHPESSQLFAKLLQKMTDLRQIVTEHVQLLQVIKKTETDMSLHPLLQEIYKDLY
From the text: as §1, §2

Row | Structure (SMILES) | Ki (PPAR-α) | Ki (PPAR-γ; read-out: PPAR-gamma Ki) | Ki (PPAR-γ; PPAR-gamma Ki)
1 | CCC(Oc1cccc(CNC(=O)OCc2nc(-c3ccccc3)oc2C)c1)C(=O)O (stereo not drawn) [Example B-14] | 21 nM | 2300 nM | 
2 | Cc1oc(-c2ccc(Cl)c(Cl)c2)nc1CCOc1ccc(CC2(C(=O)O)CCC2)cc1 [Example C-25] | 18 nM | 66 nM | 
3 | COC(Cc1ccc(OCCc2nc(-c3ccc(C)cc3)oc2C)nc1)C(=O)O [Example D-10] | 33 nM | 19 nM | 
4 | COc1ccc(-c2nc(CCOc3ccc(CC4(C(=O)O)CCCO4)nc3)c(C)o2)cc1 (stereo not drawn) [Example C-53] | 640 nM | 93 nM | 
5 | Cc1onc(-c2ccccc2)c1COc1cccc(-c2cccc(OC3(C(=O)O)CCC3)c2)c1 [Example A-20] | 140 nM | 180 nM | 
6 | CCOc1ccc(-c2nc(CCOc3ccc(CC(C)(OC)C(=O)O)cn3)c(C)o2)cc1 [Example D-37] | 4700 nM | 530 nM | 
7 | CCOC(Cc1ccc(OCCc2ccc(Oc3ccccc3)cc2)nc1)C(=O)O [Example D-14] | 2600 nM | 1500 nM | 
8 | Cc1oc(-c2ccccc2)nc1CCCc1ccc(CC2(C(=O)O)CCCO2)cn1 (stereo not drawn) [Example C-74] | 900 nM | 640 nM | 
9 | CC(C)(Oc1cccc(COC(=O)NCCc2ccc(C(F)(F)F)cc2)c1)C(=O)O [Example B-04] | 48000 nM | 1500 nM | 
10 | COC(Cc1ccc(OCCc2nc(-c3ccc(C#N)cc3)oc2C)nc1)C(=O)O [Example D-02] | 290 nM | 460 nM | 
11 | Cc1oc(-c2ccc(C(N)=O)cc2)nc1CCOc1ccc(CC2(C(=O)O)CCCO2)cc1 (stereo not drawn) [Example C-81] | 750 nM | 15 nM | 
12 | Cc1oc(-c2ccc(Cl)cc2)nc1CCOc1ccc(CC2(C(=O)O)CCC2)cc1 [Example C-27] | 15 nM | 26 nM | 
13 | CCOC(Cc1ccc(OCCc2nc(-c3ccc(Cl)cc3)oc2C)nc1)C(=O)O [Example D-15] | 220 nM | 350 nM | 
14 | COc1cccc(-c2nc(CCOc3ccc(CC4(C(=O)O)CCC4)cc3)c(C)o2)c1 [Example C-29] | 120 nM | 6 nM | 
15 | COC(C)(Cc1ccc(OCCN(C)c2nc3ccccc3o2)nc1)C(=O)O [Example D-34] | 3200 nM | 9100 nM | 
16 | COc1ccc(-c2nc(CCOc3ccc(CC4(C(=O)O)CCCO4)cc3)c(C)o2)cc1 (stereo not drawn) [Example C-84] | 64 nM | 21 nM | 
17 | Cc1oc(-c2ccccc2)nc1CCCOc1cccc(-c2cccc(OC3(C(=O)O)CCC3)c2)c1 [Example A-12] | 350 nM | 51 nM | 
18 | CC(C)(Oc1cccc(-c2cccc(OCCCOCc3ccccc3)c2)c1)C(=O)O [Example A-27] | 1300 nM | 2400 nM | 
19 | Cc1oc(-c2ccccc2)nc1CCOC(=O)NCc1ccc(OC(C)(C)C(=O)O)cc1F [Example B-09] | 2200 nM | 1900 nM | 
20 | Cc1oc(-c2ccc(C#N)cc2)nc1CCOc1ccc(CC2(C(=O)O)CCCO2)cn1 (stereo not drawn) [Example C-61] | 240 nM | 310 nM | 
21 | COC(C)(Cc1ccc(OCCCc2nc(-c3ccccc3)oc2C)cn1)C(=O)O [Example D-28] | 4800 nM | 1600 nM | 
22 | Cc1oc(-c2ccccc2)nc1CCOc1ccc(CC2(C(=O)O)CCCCO2)nc1 (stereo not drawn) [Example C-57] | 1800 nM | 1100 nM | 
23 | Cc1nn(-c2ccccc2)nc1CCOc1cccc(-c2cccc(OC(C)(C)C(=O)O)c2)c1 [Example A-26] | 330 nM | 150 nM | 
24 | COC(C)(Cc1ccc(OCCc2ccc(Oc3ccccc3)cc2)nc1)C(=O)O [Example D-40] | 1800 nM | 9600 nM | 

Row | Structure (SMILES) | Ki (PPAR-α) | Ki (PPAR-γ; read-out: PPAR-gamma Ki) | Ki (PPAR-γ; PPAR-gamma Ki)
25 | Cc1oc(-c2cccc(F)c2)nc1COc1cccc(-c2cccc(OC3(C(=O)O)CCC3)c2)c1 [Example A-11] | 120 nM | 580 nM | 
26 | CCOC(c1ccc(OCCc2nc(-c3ccccc3)oc2C)nc1)C1(C(=O)O)CCC1 (stereo not drawn) [Example C-45] | 7700 nM | 220 nM | 
27 | COC(C)(Cc1ccc(OCCc2nc(-c3ccccc3)oc2C)cn1)C(=O)O [Example D-29] | 800 nM | 400 nM | 
28 | COC(C)(Cc1ccc(OCCc2nc(-c3cccc(F)c3)oc2C)nc1)C(=O)O [Example D-42] | 1000 nM | 700 nM | 
29 | Cc1oc(-c2ccccc2)nc1CCOc1cnc(CC2(C(=O)O)CCCO2)cn1 (stereo not drawn) [Example C-77] | 2900 nM |  | 150 nM
30 | O=C(O)C1(Oc2cccc(-c3cccc(OCc4cc(-c5ccccc5)no4)c3)c2)CCC1 [Example A-14] | 150 nM | 1300 nM | 
31 | Cc1oc(-c2ccccc2)nc1CCOc1ccc(-c2cccc(OC3(C(=O)O)CCC3)c2)cc1 [Example A-10] | 4400 nM | 1500 nM | 
32 | Cc1oc(-c2ccccc2)nc1CCOc1ccc(OC2(C(=O)O)CCC2)cc1 [Example C-40] | 700 nM | 3700 nM | 
33 | Cc1oc(-c2ccccc2)nc1C/C=C/c1ccc(OC2(C(=O)O)CCC2)cc1 [Example C-14] | 3200 nM | 8000 nM | 
34 | Cc1oc(-c2ccccc2)nc1CCOC(=O)NCc1cccc(OC(C)(C)C(=O)O)c1 [Example B-05] | 2040 nM and 3200 nM and 3600 nM | 1330 nM and 2900 nM and 2000 nM | 
35 | Cc1oc(-c2ccccc2)nc1CCCOc1cccc(-c2cccc(OC(C)(C)C(=O)O)c2)c1 [Example A-23] | 180 nM | 390 nM | 
36 | Cc1oc(-c2cccc(Cl)c2)nc1CCOc1ccc(CC2(C(=O)O)CCC2)cc1 [Example C-31] | 93 nM | 26 nM | 
37 | Cc1oc(-c2ccccc2)nc1COC(=O)NCc1cccc(OC(C)(C)C(=O)O)c1 [Example B-06] | 130 nM | 370 nM | 
38 | Cc1oc(-c2ccccc2)nc1COc1ccc(CC2(C(=O)O)CCC2)cc1 [Example C-17] | 3200 nM | 26000 nM | 
39 | Cn1nc(-c2ccccc2)nc1CCOc1cccc(-c2cccc(OC(C)(C)C(=O)O)c2)c1 [Example A-25] | 4200 nM | 3200 nM | 
40 | Cc1oc(-c2ccc(Cl)cc2)nc1CCOc1ccc(CC2(C(=O)O)CCCO2)nc1 (stereo not drawn) [Example C-52] | 150 nM | 300 nM | 
41 | Cc1cccc(-c2nc(CCOc3ccc(CC4(C(=O)O)CCCO4)cc3)c(C)o2)c1 (stereo not drawn) [Example C-89] | 30 nM | 40 nM | 
42 | COc1ccc(-c2nc(COc3cccc(-c4cccc(OC5(C(=O)O)CCC5)c4)c3)no2)cc1 [Example A-17] | 1600 nM | 1900 nM | 
43 | COC(C)(Cc1ccc(OCCc2nc(C3CCCCC3)oc2C)nc1)C(=O)O [Example D-32] | 59 nM | 1500 nM | 
44 | Cc1oc(-c2cccc(Cl)c2)nc1CCOc1ccc(CC2(C(=O)O)CCCO2)cc1 (stereo not drawn) [Example C-86] | 13 nM | 5 nM | 
45 | Cc1sc(-c2ccccc2)nc1CCOc1ccc(CC2(C(=O)O)CCCO2)nc1 (stereo not drawn) [Example C-51] | 2900 nM | 180 nM | 
46 | Cc1oc(-c2ccccc2)nc1CCOc1ccc(CC2(C(=O)O)CCCC2)cn1 [Example C-46] | 3500 nM | 2000 nM | 
47 | Cc1oc(-c2ccccc2)nc1CCCOC(=O)NCc1cccc(OC(C)(C)C(=O)O)c1 [Example B-19] | 340 nM | 740 nM | 
48 | Cc1ccc(N2CCC(CCOc3cccc(-c4cccc(OC(C)(C)C(=O)O)c4)c3)CC2)nn1 [Example A-03, 2-Methyl-2-[(3′-{2-[1-(6-methylpyridazin-3-yl)piperidin-4-yl]ethoxy}1,1′-biphenyl-3-yl)oxy]propanoic acid] | 19000 nM | 10000 nM | 
